# Patent US9580391B2, “Saturated acyl guanidine for inhibition of F1F0-ATPase” (Lycera Corporation, priority 2012, dated 2017)
# Assays:
# [1] = tested on: Ramos cells; experiment: Cytotoxicity in Ramos cells; type: cell-based; conditions: Homo sapiens, read-out: Ramos Cell EC50
# Method: (§1) Compounds described in above Examples were tested for activity against F1F0-ATPase by measuring the ability of the compounds to inhibit ATP synthesis. In addition, the compounds were assessed for cytotoxicity in Ramos cells. Inhibition of F1F0-ATPase activity in synthesizing ATP and cytotoxicity in Ramos cells were measured according to the procedures described in K. M. Johnson et al. Chemistry & Biology 2005, 12, 485-496.
# [2] = target: T1, F1F0-ATPase (Bos taurus, UniProt P13621); experiment: Inhibition of F1F0-ATPase activity in synthesizing ATP; type: biochemical; conditions: inhibition of ATP synthesis; read-out: ATP Syn IC50
# T1 construct: from tissue
# Method: as §1
IC50 [2] [µM],SMILES,EC50 [1] [µM]
< 5,"CC(C)(C)CC(=O)/N=C(\Nc1cc(-c2ccc(F)cc2)[nH]n1)NC(C)(C)C [Compound 1, (Z)—N-((tert-Butylamino)((5-(4-fluorophenyl)-1H-pyrazol-3-yl)amino)methylene)-3,3-dimethylbutanamide]",5 to 16
5 to 16,"O=C(/N=C(/Nc1cccc(Cl)c1)Nc1ccc2cn[nH]c2c1)C1CCCCC1 [Compound 2, (E)-N-(((1H-Indazol-6-yl)amino)((3-chlorophenyl)amino)methylene)cyclohexanecarboxamide]",5 to 16
< 5,"O=C(Cc1ccc(Cl)cc1)/N=C(/Nc1cc(F)cc(Cl)c1)Nc1ccc2cn[nH]c2c1 [Compound 3, N-(((1H-Indazol-6-yl)amino)((3-chloro-5-fluorophenyl)amino)methylene)-2-(4-chlorophenyl)acetamide]",5 to 16
